According to patent US20060177839A1, “Method for modulating the evolution of a polypeptide encoded by a nucleic acid sequence” (priority 2004, published 2006):

System: dfrB1 WT gene (dehydrofolate reductase conferring resistance to trimethoprim)
Conditions: resistance conferred by dfrB1 WT gene

## COc1cc(Cc2cnc(N)nc2N)cc(OC)c1OC [trimethoprim]
  MIC: 512 micg/ml
